Experimental findings from patent US20120020930A1, “METHODS FOR THE PREPARATION OF ADIPOSE DERIVED STEM CELLS AND UTILIZING SAID CELLS IN THE TREATMENT OF DISEASES” (CELLERIX, S.A., priority 2008, published 2012) are described below.

Assay [1] deals with ASC. Description: IDO expression in ASC upon stimulation with pro-inflammatory mediators (RT-PCR and Western Blot). In kind it is cell-based. The following applies: TNF-α at 50 ng/mi.
Assay [2] deals with ASC. The experiment in a line: Transwell migration of ASC towards SDF-1 in the presence of Diprotin A. The following applies: Diprotin A 0, 1, 5, 10 mM on upper surface; SDF-1 50 μM in well; 24 h; crystal violet stained cells counted; FIG. 1. In kind it is cell-based, human. The procedure:
ASC were obtained from lipoaspirates obtained from human adipose tissue from healthy adult donors. Lipoaspirates were washed twice with PBS, and digested at 37° C. for 30 minutes with 0.075% collagenase (Type I, Invitrogen, Carlsbad, Calif.) in PBS. The digested sample was washed with 10% of fetal bovine serum (FBS), treated with 160 mM CINH4, suspended in culture medium (DMEM containing 10% FBS) and filtered through a 40-μm nylon mesh. Cells were seeded (2-3×10^4 cells/cm^2) onto tissue culture flasks and expanded at 37° C. and 5% CO2, changing the culture medium every 7 days. Cells were passed to a new culture flask (1,000 cells/cm^2) when cultures reached 90% of confluence. Cells were phenotypically characterized by their capacity to differentiate into chondro-, osteo-, and adipo-genic lineages. A pool of 6 ASC samples from different donors (culture passage 4-6) was used.
ASC (10^4 cells) were seeded onto the upper surface of a Transwell permeable support insert with a pore size of 8 μm. The permeable supports were inserted into a 24 well plate. […]
Stained cells (i.e. those having migrated to the underside of the permeable support) were then counted. Total number of counted cells per experimental condition is shown (two inserts per condition were counted).

Entries after “also recorded” stand apart in the source; their conditions may differ.

Regarding TNF-α, the IDO expression entry in the assay on ASC [1] was “did not induce IDO expression”.

For the substance Ile-Pro-Ile [Diprotin A], the “number of migrating cells (ASC migration to the underside of the permeable support)” value with ASC [2] is “increased migration of cells; also recorded: increased in proportion to the amount of Diprotin A”.
